These are literature values, as cited in patent US9951025B2, “Halogenopyrazoles as inhibitors of thrombin” (VERSEON CORPORATION, priority 2013, dated 2018).

For data set [1] the following is noted: intrathecal, cited from earlier work.
Data set [2] deals with lung metastases. The following applies: administered prior to cancer cell inoculation; cited from earlier work.
The conditions of data set [3]: in vivo; cited from earlier work.

Turning to hirudin, in data set [1] (for 7 days), the pain responses entry is listed as “curbed”. Also, the “development of neuropathic pain” value in data set [1] is “prevented”. Moreover, in data set [2], the “number of lung metastases” value is reported as “dramatically reduced”. Further, the disease severity entry in data set [3] is recorded as “dramatic improvement”.
